US9463210B1, “Method for alleviating cravings and discomfort associated with smoking cessation8” (priority 2015, dated 2016)
Where two headings read alike, the source gives them in different places.

Tests used:
mouse endothelial cells = conditions: cited from earlier work
isolated rat lungs = conditions: dose-dependent; cited from earlier work
[1] = test system: diabetic and at-risk-of-diabetes patients; conditions: 1.5 to 3 g daily for several years; cited from earlier work
[2] = cited from earlier work; for half-life: oral
mouse = conditions: cited from earlier work
Rat [3] = conditions: cited from earlier work
Rat [4] = conditions: in vivo; cited from earlier work
[5] = Human equivalent dose estimate of the forskolin LD50 (Reagan-Shaw)
[6] = test system: Dopamine beta-hydroxylase (DBH) mRNA in PC12 cells; conditions: cited from earlier work
[7] = test system: tyrosine hydroxylase (TH) mRNA in PC12 cells; conditions: cited from earlier work
Kuming mice = conditions: acute toxicity study; cited from earlier work
[8] = test system: mouse microglial cell line MG6; conditions: cited from earlier work
[9] = target: acetylcholinesterase (AChE) (Homo sapiens, UniProt P22303); conditions: colorimetric method; cited from earlier work
mice ear edema = conditions: cited from earlier work
NF-κB pathway = conditions: cited from earlier work
NO production = conditions: cited from earlier work
[10] = cited from earlier work
[11] = oral intakes up to 4.6 grams per day; cited from earlier work

Sequence of acetylcholinesterase (AChE) (P22303 32-614, species assumed): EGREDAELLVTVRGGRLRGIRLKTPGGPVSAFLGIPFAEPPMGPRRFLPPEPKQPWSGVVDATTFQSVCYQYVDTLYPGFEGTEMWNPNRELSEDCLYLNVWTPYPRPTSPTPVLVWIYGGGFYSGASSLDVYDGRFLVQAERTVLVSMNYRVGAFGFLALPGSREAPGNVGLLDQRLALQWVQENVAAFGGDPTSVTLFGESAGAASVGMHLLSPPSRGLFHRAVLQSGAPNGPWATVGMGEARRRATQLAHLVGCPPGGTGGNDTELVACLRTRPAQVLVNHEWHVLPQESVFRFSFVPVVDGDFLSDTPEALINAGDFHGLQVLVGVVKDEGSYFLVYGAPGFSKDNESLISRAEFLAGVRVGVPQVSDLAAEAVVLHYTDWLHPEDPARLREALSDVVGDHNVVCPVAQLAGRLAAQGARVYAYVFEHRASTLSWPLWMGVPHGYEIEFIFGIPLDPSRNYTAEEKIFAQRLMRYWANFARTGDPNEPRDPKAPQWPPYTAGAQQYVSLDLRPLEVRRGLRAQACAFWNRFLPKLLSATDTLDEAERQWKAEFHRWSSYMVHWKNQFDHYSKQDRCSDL

## NC(=O)c1cccnc1 [niacinamide, nicotinamide]
Mouse endothelial cells; IFN-primed endothelial cells
  SEB-induced endothelial NO production: significantly reduced
Mouse endothelial cells
  IFN-gamma induction of endothelial class II MHC surface antigen: markedly reduced
  iNOS mRNA levels: reduced
Isolated rat lungs
  PMA-induced pathophysiological and biochemical changes (acute lung injury): diminished
[1]
  effect on biochemical parameters including liver and kidney function tests: no effect
[2]; agreement of both studies
  half-life cautiously assumed for humans: 4 h
[2]; human, oral doses of 1-6 g
  effect on blood pressure, pulse or body temperature: no detectable effect
[2]; human, 1-g dose
  half-life: ~1.5 h
[2]; human, 2 g
  half-life: ~4 h
[2]; human, 4 and 6 g
  half-life: 7 to 9 h
mouse
  LD50: 2500 mg/kg
Rat [3]
  LD50: 3500 mg/kg

## C=C[C@@]1(C)CC(=O)[C@]2(O)[C@@]3(C)[C@@H](O)CCC(C)(C)[C@@H]3[C@H](O)[C@H](OC(C)=O)[C@@]2(C)O1 [forskolin]
Rat [4]
  oral LD50 (rat): 2,550 mg/kg
[5]; 100 pound (45.4 Kg) person
  estimated LD50 in a person: 18,773.51 mg
[5]; rat, oral, 2550×(6/37), Reagan-Shaw, read-out: HED of the rat LD50
  LD50: 413 mg/kg

## CN1CCCC1c1cccnc1 (centres unmarked) [Nicotine]
[6]
  increase of DBH mRNA levels: 3.1 fold
[7]
  increase of TH mRNA levels: 3.3 fold

## CC(C)c1cc2c(c(O)c1O)[C@@]1(C(=O)O)CCCC(C)(C)[C@@H]1CC2 [carnosic acid]
Kuming mice
  oral lethal dose (LD50): 7100 mg/kg of body weight
[8]; associated with decrease in inducible NO synthase
  NO production: inhibited
[8]; at the concentrations used
  cell survival: Neither CA nor LPS affected cell survival
[8]; in vitro
  LPS-induced activation of MG6 cells: inhibited

## CC1=CCC2C(C1)C2(C)C (single isomer, unassigned; (+)) [(+)-3-carene]
[9]
  Inhibition of AChE: potent inhibitors

## CC(C)=CCCC(C)=CC=O [citral]
Mice ear edema; 0.1 mg per ear
  inflammation reduction, ear edema: 22%
Mice ear edema; 0.3 mg per ear
  inflammation reduction, ear edema: 83%
NF-κB pathway
  activity on COX-2: could not efficiently suppress
NF-κB pathway; dose-dependent
  expression of IKK, iNOS, and nuclear NF-κB: decreased
NO production
  NO production inhibitory activity, IC50: 13.18 µg/mL

## CNCC(=O)O [sarcosine, N-methylglycine]
[10]; 2 and 4 gm/d for one week
  safety: appears to be safe
[10]; human, 2 and 4 gm/d
  time to peak concentration in serum: two

## CC1=CC[C@H]2C[C@@H]1C2(C)C [(−)-alpha-pinene]
[9]
  Inhibition of AChE: potent inhibitors

## phosphatidylcholine [PC]
[11]
  tolerability: very well tolerated

## CC1=CC[C@@H]2C[C@H]1C2(C)C [(+)-alpha-pinene]
[9]
  Inhibition of AChE: potent inhibitors

B1: interleukin-10: interleukin-10 (protein, UniProt P22301 19-178, looked up)
Interleukin-10: SPGQGTQSENSCTHFPGNLPNMLRDLRDAFSRVKTFFQMKDQLDNLLLKESLLEDFKGYLGCQALSEMIQFYLEEVMPQAENQDPDIKAHVNSLGENLKTLRLRLRRCHRFLPCENKSKAVEQVKNAFNKLQEKGIYKAMSEFDIFINYIEAYMTMKIRN
Mouse endothelial cells
  IFN-gamma induction of endothelial class II MHC surface antigen: no effect
  SEB-induced endothelial NO production: significantly reduced
  iNOS mRNA levels: did not consistently reduce
